# Results reported in ChEMBL document CHEMBL1255183, “Role of the phenolic hydroxyl group in the biological activities of simplified analogue of aplysiatoxin with antiproliferative activity” (Bioorg Med Chem Lett, 2010).
# pKi: −log10 of the molar value.
# Experiments:
# [1] = target: T1, Protein kinase C delta type (Homo sapiens, UniProt Q05655); test: Inhibition of [3H]PDBu binding to PKC delta C1B peptide
# [2] = target: Protein kinase C theta type (Homo sapiens, UniProt Q04759); test: Inhibition of [3H]PDBu binding to PKCtheta C1B peptide
# [3] = target: T2, Protein kinase C epsilon type (Homo sapiens, UniProt Q02156); test: Inhibition of [3H]PDBu binding to PKCepsilon C1B peptide
# T2 sequence (Q02156 whole entry): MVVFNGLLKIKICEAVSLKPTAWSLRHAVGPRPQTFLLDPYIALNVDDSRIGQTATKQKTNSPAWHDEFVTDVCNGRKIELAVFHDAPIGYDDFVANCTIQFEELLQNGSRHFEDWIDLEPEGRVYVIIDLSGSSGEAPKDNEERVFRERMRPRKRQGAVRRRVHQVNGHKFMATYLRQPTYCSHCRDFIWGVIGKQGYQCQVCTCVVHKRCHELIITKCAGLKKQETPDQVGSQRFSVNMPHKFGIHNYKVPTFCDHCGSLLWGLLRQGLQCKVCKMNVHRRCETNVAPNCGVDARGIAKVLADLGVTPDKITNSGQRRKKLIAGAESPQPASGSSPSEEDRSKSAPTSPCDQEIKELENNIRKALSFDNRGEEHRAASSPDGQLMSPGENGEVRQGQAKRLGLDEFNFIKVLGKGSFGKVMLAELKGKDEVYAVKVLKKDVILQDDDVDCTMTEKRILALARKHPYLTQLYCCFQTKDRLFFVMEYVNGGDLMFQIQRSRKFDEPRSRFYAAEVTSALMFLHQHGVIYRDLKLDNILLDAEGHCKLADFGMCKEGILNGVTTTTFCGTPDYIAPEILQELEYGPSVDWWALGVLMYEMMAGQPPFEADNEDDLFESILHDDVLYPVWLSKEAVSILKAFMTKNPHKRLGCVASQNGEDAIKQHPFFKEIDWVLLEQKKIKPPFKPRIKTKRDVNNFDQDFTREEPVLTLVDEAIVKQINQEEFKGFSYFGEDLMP
# [4] = target: Protein kinase C eta type (Homo sapiens, UniProt P24723); test: Inhibition of [3H]PDBu binding to PKCeta C1B peptide
# [5] = target: Protein kinase C alpha type (Homo sapiens, UniProt P17252); test: Inhibition of [3H]PDBu binding to PKC alpha C1A peptide
# [6] = target: Protein kinase C beta type (Homo sapiens, UniProt P05771); test: Inhibition of [3H]PDBu binding to PKC beta C1A peptide
# [7] = target: Protein kinase C gamma type (Homo sapiens, UniProt P05129); test: Inhibition of [3H]PDBu binding to PKC gamma C1A peptide
# [8] = target: T1, Protein kinase C delta type; test: Inhibition of [3H]PDBu binding to PKC delta C1A peptide
# Raji [9] = test: Induction of EBA-early antigen production in human Raji cells at 1 uM; type: cell-based; conditions: human gammaherpesvirus 4
# [10] = Cytotoxicity against human Raji cells assessed as viability at 1 uM in presence of TPA; type: cell-based; conditions: read-out: Activity
# [11] = Cytotoxicity against human Raji cells assessed as viability at 10^-7 M in presence of TPA; type: cell-based; conditions: read-out: Activity
# MDA-MB-231 = test: Cytotoxicity against human MDA-MB-231 cells; type: functional
# Raji [12] = test: Induction of EBA-early antigen production in human Raji cells at 10^-7 M; type: cell-based; conditions: human gammaherpesvirus 4
# [13] = Cytotoxicity against human Raji cells assessed as viability at 1 uM; type: cell-based; conditions: read-out: Activity
# NCI-H460 = test: Cytotoxicity against human NCI-H460 cells; type: functional
# Raji [14] = test: Inhibition of TPA-induced EBA-early antigen production in human Raji cells at 10^-7 M; type: cell-based; set-up: scale not given: the % may be the effect or the level left; conditions: human gammaherpesvirus 4
# A549 = test: Cytotoxicity against human A549 cells; type: functional
# SF-295 = test: Cytotoxicity against human SF295 cells; type: functional
# HCC 2998 = test: Cytotoxicity against human HCC2998 cells; type: functional
# Raji [15] = test: Inhibition of TPA-induced EBA-early antigen production in human Raji cells at 1 uM; type: cell-based; set-up: scale not given: the % may be the effect or the level left; conditions: human gammaherpesvirus 4
# PC-3 = test: Cytotoxicity against human PC3 cells; type: functional
# [16] = Cytotoxicity against human Raji cells assessed as viability at 10^-7 M; type: cell-based; conditions: read-out: Activity
# NCI-H522 = test: Cytotoxicity against human NCI-H522 cells; type: functional
# SF-539 = test: Cytotoxicity against human SF539 cells; type: functional
# OVCAR-4 = test: Cytotoxicity against human OVCAR4 cells; type: functional
# [17] = Cytotoxicity against human MKN1 cells; type: functional; conditions: MKN-1
# LOX IMVI = test: Cytotoxicity against human LOXIMVI cells; type: functional
# SF-268 = test: Cytotoxicity against human SF268 cells; type: functional
# MKN-74 = test: Cytotoxicity against human MKN74 cells; type: functional
# [18] = Cytotoxicity against human BSY1 cells; type: functional; conditions: BSY-1
# St-4 = test: Cytotoxicity against human St-4 cells; type: functional
# HCT-116 = test: Cytotoxicity against human HCT116 cells; type: functional
# NCI-H23 = test: Cytotoxicity against human NCI-H23 cells; type: functional
# MKN-45 = test: Cytotoxicity against human MKN45 cells; type: functional
# OVCAR-5 = test: Cytotoxicity against human OVCAR5 cells; type: functional
# SNB-78 = test: Cytotoxicity against human SNB78 cells; type: functional
# OVCAR-8 = test: Cytotoxicity against human OVCAR8 cells; type: functional
# MKN-7 = test: Cytotoxicity against human MKN7 cells; type: functional
# SK-OV-3 = test: Cytotoxicity against human SKOV3 cells; type: functional
# HCT-15 = test: Cytotoxicity against human HCT15 cells; type: functional
# HT-29 = test: Cytotoxicity against human HT-29 cells; type: functional
# OVCAR-3 = test: Cytotoxicity against human OVCAR-3 cells; type: functional
# ACHN = test: Cytotoxicity against human ACHN cells; type: functional
# [19] = Cytotoxicity against human HBC4 cells; type: functional
# U-251 = test: Cytotoxicity against human U251 cells; type: functional
# SNB-75 = test: Cytotoxicity against human SNB75 cells; type: functional
# DMS-114 = test: Cytotoxicity against human DMS114 cells; type: functional
# MKN-28 = test: Cytotoxicity against human MKN28 cells; type: functional
# [20] = Cytotoxicity against human RXF631L cells; type: functional; conditions: RXF 631
# MCF7 = test: Cytotoxicity against human MCF7 cells; type: functional
# NCI-H226 = test: Cytotoxicity against human NCI-H226 cells; type: functional
# DU-145 = test: Cytotoxicity against human DU145 cells; type: functional
# DMS-273 = test: Cytotoxicity against human DMS273 cells; type: functional
# KM12 = test: Cytotoxicity against human KM12 cells; type: functional
# Protein kinase C beta type, sequence (P05771 whole entry): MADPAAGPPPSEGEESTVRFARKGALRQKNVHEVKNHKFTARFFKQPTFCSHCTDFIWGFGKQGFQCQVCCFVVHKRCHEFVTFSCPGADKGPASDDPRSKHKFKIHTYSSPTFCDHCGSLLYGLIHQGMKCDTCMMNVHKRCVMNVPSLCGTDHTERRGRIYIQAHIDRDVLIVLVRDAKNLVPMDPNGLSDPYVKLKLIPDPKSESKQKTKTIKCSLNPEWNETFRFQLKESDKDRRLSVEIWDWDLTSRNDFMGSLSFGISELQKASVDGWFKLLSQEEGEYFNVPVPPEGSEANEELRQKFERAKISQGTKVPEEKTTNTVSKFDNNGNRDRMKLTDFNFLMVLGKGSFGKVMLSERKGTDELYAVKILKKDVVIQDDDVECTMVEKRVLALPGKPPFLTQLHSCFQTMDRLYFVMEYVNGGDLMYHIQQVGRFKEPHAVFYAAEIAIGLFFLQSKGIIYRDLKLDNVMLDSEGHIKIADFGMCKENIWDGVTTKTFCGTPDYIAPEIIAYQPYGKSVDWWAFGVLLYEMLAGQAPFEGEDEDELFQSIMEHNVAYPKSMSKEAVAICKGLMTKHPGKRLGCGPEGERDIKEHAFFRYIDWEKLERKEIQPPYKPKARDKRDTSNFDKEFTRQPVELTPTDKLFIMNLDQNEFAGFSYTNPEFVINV
# Protein kinase C theta type, sequence (Q04759 whole entry): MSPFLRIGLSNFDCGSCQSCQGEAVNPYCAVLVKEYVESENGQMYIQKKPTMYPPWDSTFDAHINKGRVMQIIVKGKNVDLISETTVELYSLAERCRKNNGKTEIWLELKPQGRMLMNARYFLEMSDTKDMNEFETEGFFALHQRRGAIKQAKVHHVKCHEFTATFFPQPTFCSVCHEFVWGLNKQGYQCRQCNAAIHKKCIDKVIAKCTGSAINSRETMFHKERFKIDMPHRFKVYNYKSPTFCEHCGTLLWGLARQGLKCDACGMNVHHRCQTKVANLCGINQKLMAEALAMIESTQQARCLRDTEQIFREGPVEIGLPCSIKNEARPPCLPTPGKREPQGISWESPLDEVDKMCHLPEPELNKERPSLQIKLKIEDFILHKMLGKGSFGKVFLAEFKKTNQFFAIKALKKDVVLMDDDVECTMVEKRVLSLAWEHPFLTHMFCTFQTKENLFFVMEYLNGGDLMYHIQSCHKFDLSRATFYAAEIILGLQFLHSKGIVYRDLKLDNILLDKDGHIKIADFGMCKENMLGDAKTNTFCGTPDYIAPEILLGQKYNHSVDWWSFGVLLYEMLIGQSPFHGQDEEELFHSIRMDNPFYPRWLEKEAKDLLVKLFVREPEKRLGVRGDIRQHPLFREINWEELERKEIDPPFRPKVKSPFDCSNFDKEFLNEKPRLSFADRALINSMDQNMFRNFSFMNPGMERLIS
# T1 sequence (Q05655 whole entry): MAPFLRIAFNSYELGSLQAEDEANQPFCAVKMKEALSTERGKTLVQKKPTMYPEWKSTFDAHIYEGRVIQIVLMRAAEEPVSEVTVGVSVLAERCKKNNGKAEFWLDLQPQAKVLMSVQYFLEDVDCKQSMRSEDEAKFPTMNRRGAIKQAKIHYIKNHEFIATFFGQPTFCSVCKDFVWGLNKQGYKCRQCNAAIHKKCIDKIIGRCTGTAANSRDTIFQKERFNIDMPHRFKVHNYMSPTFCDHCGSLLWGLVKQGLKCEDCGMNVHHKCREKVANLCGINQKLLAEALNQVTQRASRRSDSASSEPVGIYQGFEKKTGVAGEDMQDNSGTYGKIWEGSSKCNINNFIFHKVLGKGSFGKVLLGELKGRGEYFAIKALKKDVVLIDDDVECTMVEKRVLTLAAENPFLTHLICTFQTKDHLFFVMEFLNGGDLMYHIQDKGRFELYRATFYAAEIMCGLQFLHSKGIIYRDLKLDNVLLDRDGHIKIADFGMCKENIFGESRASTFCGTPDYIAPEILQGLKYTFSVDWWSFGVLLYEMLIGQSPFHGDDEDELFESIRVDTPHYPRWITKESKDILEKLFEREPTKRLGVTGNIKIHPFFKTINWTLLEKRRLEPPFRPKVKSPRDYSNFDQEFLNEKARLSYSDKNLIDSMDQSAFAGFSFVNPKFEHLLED
# Protein kinase C eta type, sequence (P24723 whole entry): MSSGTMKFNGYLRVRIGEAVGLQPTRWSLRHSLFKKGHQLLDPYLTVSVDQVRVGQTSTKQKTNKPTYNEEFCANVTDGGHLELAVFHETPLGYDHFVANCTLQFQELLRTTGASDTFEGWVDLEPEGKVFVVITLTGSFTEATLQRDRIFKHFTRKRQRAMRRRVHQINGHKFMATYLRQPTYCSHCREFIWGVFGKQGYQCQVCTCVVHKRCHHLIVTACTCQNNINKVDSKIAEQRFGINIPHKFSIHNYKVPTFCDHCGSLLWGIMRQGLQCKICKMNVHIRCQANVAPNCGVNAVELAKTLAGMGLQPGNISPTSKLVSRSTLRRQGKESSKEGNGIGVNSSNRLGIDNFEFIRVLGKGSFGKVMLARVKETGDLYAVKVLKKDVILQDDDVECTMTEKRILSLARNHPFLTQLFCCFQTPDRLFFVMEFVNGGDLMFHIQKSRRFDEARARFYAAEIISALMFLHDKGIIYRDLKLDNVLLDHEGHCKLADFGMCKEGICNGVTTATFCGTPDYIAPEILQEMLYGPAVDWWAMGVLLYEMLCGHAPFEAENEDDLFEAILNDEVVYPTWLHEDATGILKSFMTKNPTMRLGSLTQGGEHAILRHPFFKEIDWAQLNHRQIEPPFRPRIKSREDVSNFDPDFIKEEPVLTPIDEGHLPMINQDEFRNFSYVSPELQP
compound,measurement,setting,value
O=C1C[C@H](CO)OC(=O)C[C@H]2CCC[C@]3(C[C@@H](C[C@@H](CCCCc4ccccc4)O3)O1)O2,pKi,[1],6.77
same,pKi,[2],6.77
same,pKi,[3],6.09
same,pKi,[4],6.74
same,pKi,[5],5.62
same,pKi,[6],5.46
same,pKi,[7],5.80
same,pKi,[8],5.17
CCC/C=C/C=C/C(=O)O[C@H]1/C(=C/C(=O)OC)C[C@H]2C[C@H]([C@@H](C)O)OC(=O)C[C@H](O)C[C@@H]3C[C@H](OC(C)=O)C(C)(C)[C@](O)(C[C@@H]4C/C(=C/C(=O)OC)C[C@H](/C=C/C(C)(C)[C@]1(O)O2)O4)O3 [BRYOSTATIN 1],Activity,Raji [9],2%
same,viability at 1 µM,[10],40%
same,viability at 0.1 µM,[11],60%
same,GI50,MDA-MB-231,6310 nM
same,Activity,Raji [12],1.4%
same,viability at 1 µM,[13],40%
same,GI50,NCI-H460,2510 nM
same,Activity,Raji [14],6.8%
same,GI50,A549,6.31 µM
same,GI50,SF-295,6.31 µM
same,GI50,HCC 2998,5.01 µM
same,Activity,Raji [15],5%
same,GI50,PC-3,5.01 µM
same,viability at 0.1 µM,[16],60%
CC1(C)CC[C@@H]2CC(=O)O[C@@H](CO)CC(=O)O[C@@H]3C[C@@H](CCCCc4ccccc4)O[C@@]1(C3)O2,GI50,NCI-H522,13.2 µM
same,GI50,SF-539,10.5 µM
same,GI50,OVCAR-4,15.1 µM
same,GI50,[17],12.6 µM
same,pKi,[1],8.01
same,GI50,LOX IMVI,6.76 µM
same,Activity,Raji [9],10.5%
same,GI50,SF-268,12.9 µM
same,viability at 1 µM,[10],60%
same,viability at 0.1 µM,[11],60%
same,GI50,MDA-MB-231,2140 nM
same,pKi,[2],8.09
same,GI50,MKN-74,14.8 µM
same,GI50,[18],6.76 µM
same,GI50,St-4,891 nM
same,GI50,HCT-116,12.3 µM
same,Activity,Raji [12],9.7%
same,viability at 1 µM,[13],60%
same,GI50,NCI-H460,1480 nM
same,GI50,NCI-H23,11.2 µM
same,GI50,MKN-45,813 nM
same,GI50,OVCAR-5,11 µM
same,Activity,Raji [14],15.2%
same,GI50,SNB-78,15.8 µM
same,GI50,OVCAR-8,17.8 µM
same,GI50,MKN-7,11.5 µM
same,pKi,[3],7.43
same,GI50,SK-OV-3,17 µM
same,GI50,HCT-15,16.6 µM
same,GI50,HT-29,11.2 µM
same,GI50,OVCAR-3,13.5 µM
same,GI50,ACHN,10 µM
same,GI50,[19],525 nM
same,GI50,A549,3.24 µM
same,GI50,U-251,12.3 µM
same,GI50,SNB-75,12 µM
same,GI50,DMS-114,14.1 µM
same,pKi,[4],7.92
same,GI50,MKN-28,16.6 µM
same,GI50,SF-295,7.24 µM
same,pKi,[5],6.92
same,GI50,HCC 2998,2.95 µM
same,GI50,[20],13.8 µM
same,GI50,MCF7,16.2 µM
same,GI50,NCI-H226,11.5 µM
same,Activity,Raji [15],13.1%
same,pKi,[6],6.85
same,GI50,DU-145,12 µM
same,GI50,DMS-273,10.5 µM
same,GI50,PC-3,5.5 µM
same,pKi,[7],7.10
same,viability at 0.1 µM,[16],60%
same,pKi,[8],6.89
CC1(C)CC[C@@H]2CC(=O)O[C@@H](CO)CC(=O)O[C@@H]3C[C@@H](CCCCc4cccc(O)c4)O[C@@]1(C3)O2,GI50,NCI-H522,13.5 µM
same,GI50,SF-539,10.7 µM
same,GI50,OVCAR-4,17.8 µM
same,GI50,[17],13.8 µM
same,pKi,[1],8.13
same,GI50,LOX IMVI,1.82 µM
same,Activity,Raji [9],10.4%
same,GI50,SF-268,14.8 µM
same,viability at 1 µM,[10],60%
same,viability at 0.1 µM,[11],60%
same,GI50,KM12,13.8 µM
same,GI50,MDA-MB-231,2450 nM
same,pKi,[2],8.40
same,GI50,MKN-74,17.4 µM
same,GI50,[18],13.5 µM
same,GI50,St-4,2820 nM
same,GI50,HCT-116,16.2 µM
same,Activity,Raji [12],9.4%
same,viability at 1 µM,[13],60%
same,GI50,NCI-H460,2510 nM
same,GI50,NCI-H23,13.2 µM
same,GI50,MKN-45,4680 nM
same,GI50,OVCAR-5,11.2 µM
same,Activity,Raji [14],10.1%
same,GI50,SNB-78,19.1 µM
same,GI50,OVCAR-8,19.5 µM
same,GI50,MKN-7,16.6 µM
same,pKi,[3],7.60
same,GI50,SK-OV-3,20.4 µM
same,GI50,HCT-15,17.4 µM
same,GI50,HT-29,17 µM
same,GI50,OVCAR-3,16.6 µM
same,GI50,ACHN,12 µM
same,GI50,[19],468 nM
same,GI50,A549,4.79 µM
same,GI50,U-251,14.8 µM
same,GI50,SNB-75,15.8 µM
same,GI50,DMS-114,16.2 µM
same,pKi,[4],8.36
same,GI50,MKN-28,18.2 µM
same,GI50,SF-295,8.71 µM
same,pKi,[5],7.20
same,GI50,HCC 2998,3.72 µM
same,GI50,[20],16.2 µM
same,GI50,MCF7,19.1 µM
same,GI50,NCI-H226,15.5 µM
same,Activity,Raji [15],7.5%
same,pKi,[6],7.05
same,GI50,DU-145,14.1 µM
same,GI50,DMS-273,12.6 µM
same,GI50,PC-3,11 µM
same,pKi,[7],7.41
same,viability at 0.1 µM,[16],60%
same,pKi,[8],6.85
CCCCCCCCCCCCCC(=O)O[C@@H]1[C@@H](C)[C@@]2(O)[C@@H](C=C(CO)C[C@]3(O)C(=O)C(C)=C[C@@H]23)[C@@H]2C(C)(C)[C@]12OC(C)=O [PHORBOL MYRISTATE ACETATE],Activity,Raji [9],30.2%
same,Activity,Raji [12],28.8%
same,viability at 1 µM,[13],50%
same,viability at 0.1 µM,[16],60%
CO[C@@H](CC[C@H](C)[C@H]1O[C@@]23C[C@H](OC(=O)C[C@H]([C@@H](C)O)OC(=O)C[C@](O)(O2)[C@H](C)CC3(C)C)[C@@H]1C)c1cc(O)ccc1Br [APLYSIATOXIN],pKi,[1],9.39
same,Activity,Raji [9],20.1%
same,viability at 1 µM,[10],40%
same,viability at 0.1 µM,[11],50%
same,pKi,[2],9.80
same,Activity,Raji [12],18.4%
same,viability at 1 µM,[13],40%
same,Activity,Raji [14],17.8%
same,pKi,[3],8.89
same,pKi,[4],9.44
same,pKi,[5],9.40
same,Activity,Raji [15],19.4%
same,pKi,[6],9.35
same,pKi,[7],9.20
same,viability at 0.1 µM,[16],50%
same,pKi,[8],7.92
